Measurements from patent US12435091B2, “RNA-binding protein multimerization inhibitors and methods of use thereof” (THE UAB RESEARCH FOUNDATION, priority 2020, dated 2025).
Values after ≈ are worked out from the molar mass of the structure shown. Where two headings read alike, the source gives them in different places.

Legend:
[1] = biological target: T1, HuR (Homo sapiens, UniProt Q15717); test: cell-based split firefly luciferase-HuR dimerization assay; conditions: for IC50: read-out: HuR IC50
T1 construct: expressed in transfected cells; host or cells: U251 glioma cells, doxycycline-inducible constructs
T1 sequence (Q15717 whole entry): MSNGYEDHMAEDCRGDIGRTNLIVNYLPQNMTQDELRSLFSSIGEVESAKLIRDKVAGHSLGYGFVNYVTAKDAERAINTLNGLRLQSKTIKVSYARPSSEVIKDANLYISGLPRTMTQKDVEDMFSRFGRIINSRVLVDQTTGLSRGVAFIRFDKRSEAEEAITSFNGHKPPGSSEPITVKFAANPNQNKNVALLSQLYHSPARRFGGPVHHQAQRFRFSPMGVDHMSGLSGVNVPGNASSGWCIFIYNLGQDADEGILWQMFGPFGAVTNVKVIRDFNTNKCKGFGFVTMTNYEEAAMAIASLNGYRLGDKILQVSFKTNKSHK
Procedure: (§1) The oncogenic activity of HuR is driven by subcellular localization into the cytoplasm and formation of multimers of HuR. To develop cell based assays to characterize the ability of small molecules to disrupt this process, a split luciferase assay detecting the formation of HuR dimers was developed. The assays were performed in 96 well plates with clear bottom (Corning Inc., Corning, NY). Cells with designed constructs (30,000-50,000 in number) were plated per well; the constructs were induced by doxycycline (0.75 ug/ml) for 48 hours. The evaluated compounds at different concentrations and the corresponding vehicle as the control were administered for 6 hours. The luminescence signals were detected by using InfinitiM200 plate reader (TECAN, Morrisville, NC) in the presence of the luciferase substrate luciferin (D-Luciferin, potassium salt), which was purchased from GoldBio (St Louis, MO). A multichannel pipette (XL 3000I™, Denville Scientific, South Plainfield, NJ) was used in all procedures to ensure the experiment quality.
The assay used the coding sequence of HuR in frame with the N-terminus of firefly luciferase or the C-terminus as depicted in FIG. 2A. When HuR forms dimers in this case, luciferase is generated and with luciferin present, luminescence is generated.
(§2) Squares represent luminescence signal from reporter representing HuR dimers (U251 cells co-expressing HuR-Nluc and HuR-Cluc constructs); circles represent luminescence signal from control reporter (U251 cells expressing Fluc construct). Results are shown as mean+SD.

[2] = system: U251 cells expressing Fluc construct; test: control Fluc (full length luciferase) reporter assay in U251 cells; assay type: cell-based; conditions: Homo sapiens, U-251, 6 h, read-out: Fluc Imax % Inh; for inhibition at 50 µM: Concn 50 uM
Procedure: as §1, with “quality. […]” for “quality.”
as §2

[3] = Mouse liver microsomal stability in vitro; assay type: in vitro ADME; conditions: liver microsomes, read-out: MLM t1/2
Procedure: (§3) Selected compounds were assessed for their aqueous solubility, Log D and mouse and human liver microsomal stability.

[4] = in vitro; conditions: human, liver microsomes
Procedure: as §3

[5] = aqueous solubility at pH 7.4; assay type: physicochemical; conditions: for solubility: aqueous medium at pH 7.4, pH 7.4, aqueous buffer, read-out: Sol @ pH 7.4
Procedure: as §3

[6] = Log D at pH 7.4; assay type: physicochemical
Procedure: as §3

[7] = U251 cells co-expressing HuR-Nluc and HuR-Cluc, 6 hours of treatment
[8] = split luciferase HuR dimerization assay, compounds administered for 6 hours

SMILES | HuR N/C Imax % Inh ([1]; Concn 50 uM) [%] | IC50 [1, 7] [µM] | IC50 [1, 8] [µM] | half-life [3] [min] | half-life [4] [min] | solubility [5] [µM] | logD [6] | aqueous solubility (in words) [5] | HuR N/C Imax % Inh ([1]; Concn 100 uM) [%] | HuR IC50 [1, 8] | inhibition at 50 µM [2] [%] | inhibition at 100 µM ([2]; Concn 100 uM) [%]
CCCNc1ccc2ncc(-c3ccc4[nH]ncc4c3)n2n1 [Compound 48] | 90 | 0.7 | 0.7 | 2.2 | 6.1 | 3.2 (≈ 0.936 µg/mL) |  |  |  |  | 29 | 
FC1(F)CCC(Nc2ccc3ncc(-c4ccc5[nH]ncc5c4)n3n2)CC1 [Compound 46, N-(4,4-Difluorocyclohexyl)-3-(1H-indazol-5-yl)imidazo[1,2-b]pyridazin-6-amine] | 91 | 2.1 | 2.1 | 4.4 | 11.5 | 1 (≈ 0.368 µg/mL) | > 4.16 |  |  |  | 17 | 
FC(F)(F)CNc1ccc2ncc(-c3ccc4[nH]ncc4c3)n2n1 [Compound 50, 3-(1H-Indazol-5-yl)-N-(2,2,2-trifluoroethyl)imidazo[1,2-b]pyridazin-6-amine] | 93 | 0.19 | 0.19 | 2.6 | 12.1 | 2.6 (≈ 0.864 µg/mL) | > 4.15 |  |  |  | 26 | 
Cn1ncc2ccc(-c3cnc4ccc(NC5CCOCC5)nn34)cc21 [Compound 20] | 93 | 1.2 | 1.2 | 8.1 | 11.6 | 79.6 (≈ 27.7 µg/mL) | 2.9 |  |  |  | 35 | 
c1cc2cn[nH]c2cc1-n1nnc2cnc(NC3CCOCC3)nc21 [Compound 4, 3-(1H-Indazol-6-yl)-N-(tetrahydro-2H-pyran-4-yl)-3H-[1,2,3]triazolo[4,5-d]pyrimidin-5-amine] | 85 | 5 |  |  |  |  |  | improved aqueous solubility |  |  | 36 | 
CCCN(C)c1ccc2ncc(-c3ccc4[nH]nc(C(C)=O)c4c3)n2n1 [Compound 53, 1-(5-(6-(Methyl(propyl)amino)imidazo[1,2-b]pyridazin-3-yl)-1H-indazol-3-yl)ethan-1-one] | 72 | 6 | 6 | 1.3 | 6.3 | < 1 | > 4.48 |  |  |  | 10 | 
Cc1n[nH]c2cc(-c3cnc4ccc(N(C)C5CCOCC5)nn34)ccc12 [Compound 32, N-Methyl-3-(3-methyl-1H-indazol-6-yl)-N-(tetrahydro-2H-pyran-4-yl)imidazo[1,2-b]pyridazin-6-amine] |  |  | > 50 | 7.3 | 9 | < 1 | > 4.35 |  |  |  |  | 
CN(c1ccc2ncc(-c3ccc4cc[nH]c4c3)n2n1)C1CCOCC1 [Compound 13] |  |  | 28 | 5.6 | 6.8 | 12.8 (≈ 4.45 µg/mL) | 2.2 |  |  |  |  | 
FC1(F)CCC(Nc2ccc3ncc(-c4ccc5cn[nH]c5c4)n3n2)CC1 [Compound 23, N-(4,4-Difluorocyclohexyl)-3-(1H-indazol-6-yl)imidazo[1,2-b]pyridazin-6-amine] | 92 | 2.8 | 2.8 | 3.9 | 27.3 | 2.1 (≈ 0.774 µg/mL) | > 4.23 |  |  |  | 39 | 
CN(c1ccc2ncc(-c3cnc4[nH]ncc4c3)n2n1)C1CCOCC1 [Compound 55, N-Methyl-3-(1H-pyrazolo[3,4-b]pyridin-5-yl)-N-(tetrahydro-2H-pyran-4-yl)imidazo[1,2-b]pyridazin-6-amine] | 90 | 1.2 | 1.2 |  |  |  |  |  |  |  | 10 | 
CN(c1ccc2ncc(-c3ccc4cnn(C)c4c3)n2n1)C1CCOCC1 [Compound 21, N-Methyl-3-(1-methyl-1H-indazol-6-yl)-N-(tetrahydro-2H-pyran-4-yl)imidazo[1,2-b]pyridazin-6-amine] | 71 | 3.4 | 3.4 |  |  |  |  |  |  |  | 28 | 
CCCN(C)c1ccc2ncc(-c3ccc4cnn(C)c4c3)n2n1 [Compound 30, N-Methyl-3-(1-methyl-1H-indazol-6-yl)-N-propylimidazo[1,2-b]pyridazin-6-amine] | 91 | 2.2 | 2.2 | 1.3 | 7.9 | 2.5 (≈ 0.801 µg/mL) | > 4.55 |  |  |  | 36 | 
CN(c1ccc2ncc(-c3ccc4cn[nH]c4c3)n2n1)C1CCC(F)(F)CC1 [Compound 29] |  |  |  | 15.3 | 82.8 | 77.3 (≈ 29.6 µg/mL) | 0.9 |  |  | Insoluble^b |  | 
CN(c1ccc2ncc(-c3ccc4cn[nH]c4c3)n2n1)C1CCCCC1 [Compound 22, N-Cyclohexyl-3-(1H-indazol-6-yl)-N-methylimidazo[1,2-b]pyridazin-6-amine] | 93 | 9 | 9 |  |  |  |  |  |  |  | 32 | 
CN(c1cnn(C2CCOCC2)c1)c1ncc2nnn(-c3ccc4cn[nH]c4c3)c2n1 [Compound 3, 3-(1H-Indazol-6-yl)-N-methyl-N-(1-(tetrahydro-2H-pyran-4-yl)-1H-pyrazol-4-yl)-3H-[1,2,3]triazolo[4,5-d]pyrimidin-5-amine] |  |  |  |  |  |  |  | poor aqueous solubility |  |  |  | 
COc1ncccc1-c1cnn2ccc(N3CCN(C(=O)OC(C)C)CC3)nc12 [SRI-43414] | 45 | > 50 |  |  |  |  |  |  |  |  | 28 | 
CN(c1ccc2ncc(-c3ccc4nccn4c3)n2n1)C1CCOCC1 [Compound 18, 3-(Imidazo[1,2-a]pyridin-6-yl)-N-methyl-N-(tetrahydro-2H-pyran-4-yl)imidazo[1,2-b]pyridazin-6-amine] | 89 | 3 | 3 |  |  |  |  |  |  |  | 6 | 

Now from value to molecule, other results behind:

HuR N/C Imax % Inh ([1]; Concn 50 uM) [%] | IC50 [1, 7] [µM] | IC50 [1, 8] [µM] | half-life [3] [min] | half-life [4] [min] | solubility [5] [µM] | logD [6] | aqueous solubility (in words) [5] | HuR N/C Imax % Inh ([1]; Concn 100 uM) [%] | HuR IC50 [1, 8] | SMILES | inhibition at 50 µM [2] [%] | inhibition at 100 µM ([2]; Concn 100 uM) [%]
28 | > 50 |  |  |  |  |  |  |  |  | O=C(C1CCCC1)N1CCN(C(=O)C2CC2c2ccc3c(c2)OCO3)CC1 (stereo not shown) [SRI-43655] | 10 | 
89 | > 25 |  |  |  |  |  |  |  |  | CN1CCN(Cc2ccc(-c3cnc4[nH]cc(-c5ccc6[nH]ccc6c5)c4c3)cc2)CC1 [SRI-41647] | 4 | 
 | > 100 |  |  |  |  |  |  | 3 |  | Cc1cc(-c2cnn3c(NC[C@H]4C[C@@](C)(O)C4)cc(Oc4cccnc4)nc23)ccc1C(=O)NC1CC1 [SRI-41646] |  | 15
82 | 20 to 22 |  |  |  |  |  |  |  |  | Brc1cnc2ccc(NC3CCOCC3)nn12 [SRI-42219] | 32 | 
0 |  |  |  |  |  |  |  |  |  | O=C(c1ccc(=O)[nH]c1)N1CCN(C(=O)C2CC2c2ccccc2)CC1 (stereo not shown) [SRI-43653] | 0 | 
0 |  |  |  |  |  |  |  |  |  | O=C(c1ccc2nsnc2c1)N1CCN(C(=O)C2CC2c2cccs2)CC1 (stereo not shown) [SRI-43650] | 0 | 
57 | 40 |  |  |  |  |  |  |  |  | CN(CCNc1ccc2ncc(-c3ccc(C(N)=O)cc3)n2n1)C(=O)OC(C)(C)C [SRI-43415] | 9 | 
0 |  |  |  |  |  |  |  |  |  | Clc1ncc2nnn(-c3ccc4cn[nH]c4c3)c2n1 [SRI-42123] | 0 | 
